Assay results taken from US9023789B2, “Amylin analogs and pharmaceutical compositions thereof” (Novo Nordisk A/S, priority 2012, dated 2015).
Numbered stars: 1 amine (or outer) side, 2 acyl side, 3 side chain; on linkers, the order of the positions; unused ones are H or OH. Bridge positions count the residues as written; N and C are the ends. Side chains are listed from the residue outwards. Peptide text beside a SMILES is read from it. * marks the point of attachment. C20 diacid = O=C(O)CCCCCCCCCCCCCCCCCCC(=O)*; γGlu = O=C(O)[C@H](CCC(=O)[*:2])N[*:1]

Key:
[1] = ASSAY (III) ThT fibrillation assay for physical stability; assay type: physicochemical
Procedure, shortened: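 Physical stability scored by ThT fluorescence (444 nm excitation, 485 nm emission) tracked every 20 min during 37 °C incubation with 960 rpm shaking, ThT at 1 μM final. Values are replicate means with SD at chosen times; HPLC against pramlintide standard gives initial and post-assay soluble concentrations.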

[2] = molecular target: T1, human amylin 3(a) receptor (human calcitonin receptor + RAMP-3) in BHK570 cells (Homo sapiens, UniProt O60896+P30988); experiment: ASSAY (II)a functional assay, human amylin receptor (CRE luciferase); assay type: cell-based
T1 construct: expressed in transfected cells
Procedure, shortened: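 Functional agonism was measured by CRE-luciferase reporter luminescence in BHK cells bearing calcitonin receptor, or calcitonin receptor plus RAMP-3 as the amylin 3(a) receptor. Stimulation lasted 3 hours at 37° C.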

[3] = hCTR funct. EC50 divided by hAmylin-R funct. EC50
[4] = hCTR funct. EC50 over hAmylin-R funct. EC50
[5] = human functional selectivity: hCTR funct. EC50 / hAmylin-R funct. EC50

T1 sequence (O60896 24-148): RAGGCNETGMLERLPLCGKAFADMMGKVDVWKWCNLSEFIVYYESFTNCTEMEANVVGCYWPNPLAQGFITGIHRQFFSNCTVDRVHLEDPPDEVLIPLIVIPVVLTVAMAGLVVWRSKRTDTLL
T1 sequence (P30988 25-474): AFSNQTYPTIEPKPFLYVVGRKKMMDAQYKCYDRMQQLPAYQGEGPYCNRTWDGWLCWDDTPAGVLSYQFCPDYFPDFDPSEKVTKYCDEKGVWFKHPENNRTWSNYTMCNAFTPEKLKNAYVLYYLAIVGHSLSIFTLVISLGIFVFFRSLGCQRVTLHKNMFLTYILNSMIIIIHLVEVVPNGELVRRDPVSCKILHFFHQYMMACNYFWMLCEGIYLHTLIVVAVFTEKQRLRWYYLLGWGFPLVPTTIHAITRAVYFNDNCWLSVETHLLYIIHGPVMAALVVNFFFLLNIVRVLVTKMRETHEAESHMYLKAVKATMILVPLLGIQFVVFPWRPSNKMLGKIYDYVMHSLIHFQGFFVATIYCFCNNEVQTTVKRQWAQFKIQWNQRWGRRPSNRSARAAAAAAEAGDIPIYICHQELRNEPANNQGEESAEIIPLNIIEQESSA

## CC[C@H](C)[C@H](NC(=O)[C@H](C)NC(=O)CNC(=O)[C@H](Cc1ccccc1)NC(=O)[C@H](CC(N)=O)NC(=O)[C@@H]1CCCN1C(=O)[C@H](CO)NC(=O)[C@H](CO)NC(=O)[C@H](Cc1c[nH]cn1)NC(=O)[C@H](CCCNC(=N)N)NC(=O)[C@H](CC(C)C)NC(=O)[C@H](Cc1ccccc1)NC(=O)[C@H](C)NC(=O)[C@H](C)NC(=O)[C@H](CC(C)C)NC(=O)[C@H](CCCNC(=N)N)NC(=O)[C@H](CCC(N)=O)NC(=O)[C@@H](NC(=O)[C@H](C)NC(=O)[C@@H]1CSSC[C@H](NC(=O)[C@@H](N)CCCCNC(=O)CC[C@H](NC(=O)CCCCCCCCCCCCCCCCCCC(=O)O)C(=O)O)C(=O)N[C@@H](CC(N)=O)C(=O)N[C@@H]([C@@H](C)O)C(=O)N[C@@H](C)C(=O)N[C@@H]([C@@H](C)O)C(=O)N1)[C@@H](C)O)C(=O)N1CCC[C@H]1C(=O)N[C@@H](CO)C(=O)N[C@@H](CO)C(=O)N[C@H](C(=O)N[C@@H](CC(N)=O)C(=O)N[C@H](C(=O)NCC(=O)N[C@@H](Cc1c[nH]cn1)C(=O)N[C@@H](CC(N)=O)C(=O)N[C@H](C(=O)N[C@@H](Cc1ccc(O)cc1)C(N)=O)[C@@H](C)O)C(C)C)[C@@H](C)O [Example 93] (H-K([γGlu-C20 diacid])CNTATCATQRLAAFLRHSSPNFGAIPSSTNVGHNTY-NH2; disulfide 2-7; N-terminus assumed)
[1]
  ThT pH 4.0 lag time (h): 16 h
[2]; [3]
  Ratio hCT/hAmylin funct.: 9.7
[2]; [4]
  Ratio hCT/hAmylin funct.: 9.7
[2]; [5]
  Ratio hCT/hAmylin funct.: 9.7

## CC[C@H](C)[C@H](NC(=O)[C@H](C)NC(=O)CNC(=O)[C@H](Cc1ccccc1)NC(=O)[C@H](CC(N)=O)NC(=O)[C@@H]1CCCN1C(=O)[C@H](CO)NC(=O)[C@H](CO)NC(=O)[C@H](Cc1c[nH]cn1)NC(=O)[C@H](CCCNC(=N)N)NC(=O)[C@H](CC(C)C)NC(=O)[C@H](Cc1ccccc1)NC(=O)[C@H](CC(N)=O)NC(=O)[C@H](C)NC(=O)[C@H](CC(C)C)NC(=O)[C@H](CCCNC(=N)N)NC(=O)[C@H](CCC(N)=O)NC(=O)[C@@H](NC(=O)[C@H](C)NC(=O)[C@@H]1CSSC[C@H](NC(=O)[C@@H](N)CCCCNC(=O)COCCOCCNC(=O)COCCOCCNC(=O)CC[C@H](NC(=O)CCCCCCCCCCCCCCCCCCC(=O)O)C(=O)O)C(=O)N[C@@H](CC(N)=O)C(=O)N[C@@H]([C@@H](C)O)C(=O)N[C@@H](C)C(=O)N[C@@H]([C@@H](C)O)C(=O)N1)[C@@H](C)O)C(=O)N1CCC[C@H]1C(=O)N[C@@H](CO)C(=O)N[C@@H](CO)C(=O)N[C@H](C(=O)N1CCC[C@H]1C(=O)N[C@H](C(=O)NCC(=O)N[C@@H](CO)C(=O)N[C@@H](CC(N)=O)C(=O)N[C@H](C(=O)N[C@@H](Cc1ccc(O)cc1)C(N)=O)[C@@H](C)O)C(C)C)[C@@H](C)O [Example 96]
[1]
  ThT pH 4.0 lag time (h): 12 h
[2]; [3]
  Ratio hCT/hAmylin funct.: 21.0
[2]; [4]
  Ratio hCT/hAmylin funct.: 21.0
[2]; [5]
  Ratio hCT/hAmylin funct.: 21.0

## CC[C@H](C)[C@H](NC(=O)[C@H](C)NC(=O)CNC(=O)[C@H](Cc1ccccc1)NC(=O)[C@H](CC(N)=O)NC(=O)[C@@H]1CCCN1C(=O)[C@H](CO)NC(=O)[C@H](CO)NC(=O)[C@H](Cc1c[nH]cn1)NC(=O)[C@H](CCCNC(=N)N)NC(=O)[C@H](CC(C)C)NC(=O)[C@H](Cc1ccccc1)NC(=O)[C@H](CC(N)=O)NC(=O)[C@H](C)NC(=O)[C@H](CC(C)C)NC(=O)[C@H](CCCNC(=N)N)NC(=O)[C@H](CCC(N)=O)NC(=O)[C@@H](NC(=O)[C@H](C)NC(=O)[C@@H]1CSSC[C@H](NC(=O)[C@@H](N)CCCCNC(=O)COCCOCCNC(=O)COCCOCCNC(=O)CC[C@H](NC(=O)CCCCCCCCCCCCCCCCCCC(=O)O)C(=O)O)C(=O)N[C@@H](CC(N)=O)C(=O)N[C@@H]([C@@H](C)O)C(=O)N[C@@H](C)C(=O)N[C@@H]([C@@H](C)O)C(=O)N1)[C@@H](C)O)C(=O)N1CCC[C@H]1C(=O)N[C@@H](CO)C(=O)N[C@@H](CO)C(=O)N[C@H](C(=O)N[C@@H](CC(N)=O)C(=O)N[C@H](C(=O)NCC(=O)N[C@@H](Cc1c[nH]cn1)C(=O)N[C@@H](CC(N)=O)C(=O)N[C@H](C(=O)N[C@@H](Cc1ccc(O)cc1)C(N)=O)[C@@H](C)O)C(C)C)[C@@H](C)O [Example 97]
[1]
  ThT pH 4.0 lag time (h): 30 h
[2]; [3]
  Ratio hCT/hAmylin funct.: 33.0
[2]; [4]
  Ratio hCT/hAmylin funct.: 33.0
[2]; [5]
  Ratio hCT/hAmylin funct.: 33.0

## CC[C@H](C)[C@H](NC(=O)[C@H](C)NC(=O)CNC(=O)[C@H](Cc1ccccc1)NC(=O)[C@H](CC(N)=O)NC(=O)[C@@H]1CCCN1C(=O)[C@H](CO)NC(=O)[C@H](CO)NC(=O)[C@H](Cc1c[nH]cn1)NC(=O)[C@H](CCCNC(=N)N)NC(=O)[C@H](CC(C)C)NC(=O)[C@H](Cc1ccccc1)NC(=O)[C@H](CC(N)=O)NC(=O)[C@H](C)NC(=O)[C@H](CC(C)C)NC(=O)[C@H](CCCNC(=N)N)NC(=O)[C@H](CCC(N)=O)NC(=O)[C@@H](NC(=O)[C@H](C)NC(=O)[C@@H]1CSSC[C@H](NC(=O)[C@@H](N)CCCCNC(=O)COCCOCCNC(=O)COCCOCCNC(=O)CC[C@H](NC(=O)CCCCCCCCCCCCCCCCCCC(=O)O)C(=O)O)C(=O)N[C@@H](CC(N)=O)C(=O)N[C@@H]([C@@H](C)O)C(=O)N[C@@H](C)C(=O)N[C@@H]([C@@H](C)O)C(=O)N1)[C@@H](C)O)C(=O)N1CCC[C@H]1C(=O)N[C@@H](CO)C(=O)N[C@@H](CO)C(=O)N[C@H](C(=O)N[C@@H](CC(N)=O)C(=O)N[C@H](C(=O)NCC(=O)N1CCC[C@H]1C(=O)N[C@@H](CC(N)=O)C(=O)N[C@H](C(=O)N[C@@H](Cc1ccc(O)cc1)C(N)=O)[C@@H](C)O)C(C)C)[C@@H](C)O [Example 98]
[1]
  ThT pH 4.0 lag time (h): 4 h
[2]; [3]
  Ratio hCT/hAmylin funct.: 19.5
[2]; [4]
  Ratio hCT/hAmylin funct.: 19.5
[2]; [5]
  Ratio hCT/hAmylin funct.: 19.5

## CC[C@H](C)[C@H](NC(=O)[C@H](C)NC(=O)CNC(=O)[C@H](Cc1ccccc1)NC(=O)[C@H](CC(N)=O)NC(=O)[C@@H]1CCCN1C(=O)[C@H](CO)NC(=O)[C@H](CO)NC(=O)[C@H](Cc1c[nH]cn1)NC(=O)[C@H](CCCNC(=N)N)NC(=O)[C@H](CC(C)C)NC(=O)[C@H](Cc1ccccc1)NC(=O)[C@H](Cc1c[nH]cn1)NC(=O)[C@H](C)NC(=O)[C@H](CC(C)C)NC(=O)[C@H](CCCNC(=N)N)NC(=O)[C@H](CCC(N)=O)NC(=O)[C@@H](NC(=O)[C@H](C)NC(=O)[C@@H]1CSSC[C@H](NC(=O)[C@H](CCCNC(=N)N)NC(=O)CNC(=O)CC[C@H](NC(=O)CCCCCCCCCCCCCCCCCCC(=O)O)C(=O)O)C(=O)N[C@@H](CC(N)=O)C(=O)N[C@@H]([C@@H](C)O)C(=O)N[C@@H](C)C(=O)N[C@@H]([C@@H](C)O)C(=O)N1)[C@@H](C)O)C(=O)N1CCC[C@H]1C(=O)N[C@@H](CO)C(=O)N[C@@H](CO)C(=O)N[C@H](C(=O)N[C@@H](CC(N)=O)C(=O)N[C@H](C(=O)NCC(=O)N[C@@H](CO)C(=O)N[C@@H](CC(N)=O)C(=O)N[C@H](C(=O)N[C@@H](Cc1ccc(O)cc1)C(N)=O)[C@@H](C)O)C(C)C)[C@@H](C)O [Example 99] ({C20 diacid-γGlu}-GRCNTATCATQRLAHFLRHSSPNFGAIPSSTNVGSNTY-NH2; disulfide 3-8)
[1]
  ThT pH 4.0 lag time (h): 17 h
[2]; [3]
  Ratio hCT/hAmylin funct.: 10.0
[2]; [4]
  Ratio hCT/hAmylin funct.: 10.0
[2]; [5]
  Ratio hCT/hAmylin funct.: 10.0

## CC[C@H](C)[C@H](NC(=O)[C@H](C)NC(=O)CNC(=O)[C@H](Cc1ccccc1)NC(=O)[C@H](CC(N)=O)NC(=O)[C@@H]1CCCN1C(=O)[C@H](CO)NC(=O)[C@H](CO)NC(=O)[C@H](Cc1c[nH]cn1)NC(=O)[C@H](CCCNC(=N)N)NC(=O)[C@H](CC(C)C)NC(=O)[C@H](Cc1ccccc1)NC(=O)[C@H](Cc1c[nH]cn1)NC(=O)[C@H](C)NC(=O)[C@H](CC(C)C)NC(=O)[C@H](CCCNC(=N)N)NC(=O)[C@H](CCC(N)=O)NC(=O)[C@@H](NC(=O)[C@H](C)NC(=O)[C@@H]1CSSC[C@H](NC(=O)[C@H](CCCNC(=N)N)NC(=O)CNC(=O)CC[C@H](NC(=O)CCCCCCCCCCCCCCCCCCC(=O)O)C(=O)O)C(=O)N[C@@H](CC(N)=O)C(=O)N[C@@H]([C@@H](C)O)C(=O)N[C@@H](C)C(=O)N[C@@H]([C@@H](C)O)C(=O)N1)[C@@H](C)O)C(=O)N1CCC[C@H]1C(=O)N[C@@H](CO)C(=O)N[C@@H](CO)C(=O)N[C@H](C(=O)N[C@@H](CC(N)=O)C(=O)N[C@H](C(=O)NCC(=O)N[C@@H](Cc1c[nH]cn1)C(=O)N[C@@H](CC(N)=O)C(=O)N[C@H](C(=O)N[C@@H](Cc1ccc(O)cc1)C(N)=O)[C@@H](C)O)C(C)C)[C@@H](C)O [Example 100] ({C20 diacid-γGlu}-GRCNTATCATQRLAHFLRHSSPNFGAIPSSTNVGHNTY-NH2; disulfide 3-8 (inferred))
[1]
  ThT pH 4.0 lag time (h): 33 h
[2]; [3]
  Ratio hCT/hAmylin funct.: 6.8
[2]; [4]
  Ratio hCT/hAmylin funct.: 6.8
[2]; [5]
  Ratio hCT/hAmylin funct.: 6.8
